Data on two molecules can be found in patent publication US6413495B1, “X-ray intercepting metal complexes of chlorin derivatives” (Meiji Seika Kaisha, Ltd., priority 1998, dated 2002).

The subject of data set [1] is CD-1 mice (male). The conditions noted are these: oral administration; cited from earlier work.
The subject of data set [2] is CD-1 mice (male). The experiment in a line: Acute toxicity by oral administration to mice. Type of data set: in vivo. As for the experimental part: The acute toxicity, as tested by oral administration to CD-1 mice (male), of mono-L-aspartyl chlorin e6 tetra-sodium salt is already known to be such that its 50% lethal dose is 164 mg/kg, and thus the compound is of a low toxicity (refer to Japanese Patent Application Publication Kokai Hei 9-71531).

The subject of data set [3] is PC-10 cells originated from human lung cancer. The data set is described as follows: Test Example 3: X-ray radiography of PC-10 solid cancer on the back of nude mice. Particulars: nude mice with PC-10 solid cancer on the back; procedure of Test Example 1. Type of data set: in vivo. As for the experimental part:
(§1) Male Balb/c mice having a body weight of 16˜20 g (five mice per group) were inoculated, in their abdominal region, with MKSA cells to form a solid ascites carcinoma in the abdominal region of mouse. The mono-L-aspartyl chlorin e6-gold complex sodium salt (the product of Example 2 above) was administered at a dose of 0.01˜0.04 mg in the form of a physiological saline solution of said gold complex sodium salt to the cancer-bearing mice through their tail vein. At the end of one hour to three hours after the administration, the mice were anesthetized with nembutal. An X-ray beam containing the X-ray of the wavelength of 0.153 Å was irradiated from outside of the body to the abdominal region of the mice for an appropriate time.
The procedure of Test Example 1 was repeated except that the ascites carcinoma-bearing used in Test Example 1 were replaced by nude mice which had on the back of the body a solid cancer as formed by transplantation of PC-10 cells originated from human lung cancer.

In data set [4] the test system is lesions of arteriosclerosis of artery. The experiment in a line: Test Example 2: detection and therapy of lesions of arteriosclerosis by X-ray radiography. The data set is classed as in vivo, rabbit. Particulars: 8 mg via ear vein. As to the method: To a rabbit having a high cholesteremia and a body weight of about 4 kg was administered 8 mg of the mono-L-aspartyl chlorin e6-gold complex sodium salt (the product of Example 2) through the ear vein. One hour after the administration, anesthesia with nembutal was done to the rabbit. Then, the whole body of the rabbit was irradiated for an appropriate time with an X-ray beam containing the X-ray of the wavelength of 0.153 Å which suited to the electron absorption of the K-shell of gold atom. The X-ray which had passed through the rabbit was allowed to sensitize an X-ray film and to produce X-ray image.

Data set [5] has as its system MKSA cells (solid ascites carcinoma in the abdominal region). The data set is described as follows: Test Example 1: detection and therapy of tumor tissue by X-ray radiography (solid ascites carcinoma). The data set is classed as in vivo, Male Balb/c mice. As for the experimental part: as §1
X-ray image was formed by allowing the X-ray to pass through the abdominal region of mice and to expose and sensitize an X-ray film.
Thus, it was found and confirmed that the gold complex of the chlorin e6 derivative as administered to mice had exerted a cytocidal action to the ascites carcinoma cells upon the irradiation of X-ray to mice.

Consider `C=Cc1c(C)c2cc3nc(c(CC(=O)N[C@@H](CC(=O)[O-])C(=O)[O-])c4[nH]c(cc5nc(cc1[nH]2)C(C)=C5CC)c(C)c4C(=O)[O-])[C@@H](CCC(=O)[O-])[C@@H]3C.[Na+].[Na+].[Na+].[Na+]` [mono-L-aspartyl chlorin e6 tetra-sodium salt], for which the “50% lethal dose (acute toxicity)” value in data set [1] is on record as 164 mg/kg.

“mono-L-aspartyl chlorin e6-gold complex sodium salt [Example 2]”: the “acute toxicity upon oral administration, compared with mono-L-aspartyl chlorin e6 tetrasodium salt” value in data set [2] is recorded as “substantially same as that of the mono-L-aspartyl chlorin e6 tetrasodium salt”. Moreover, the “X-ray image of the solid cancer on X-ray film” value in data set [3] is “Sharp X-ray image”; in data set [5] (0.01~0.04 mg i.v. (tail vein), X-ray beam containing 0.153 Å irradiated 1-3 hours after administration), “sharply imaged”. Moreover, the “X-ray image of the lesions of arteriosclerosis” value in data set [4] (rabbit with high cholesteremia, X-ray beam containing 0.153 Å one hour after administration) is given as “sharp X-ray image”. Also, the “dimensions of the lesions of arteriosclerosis compared with those at the time of X-ray irradiation” value in data set [4] (one week after the X-ray irradiation) was “clearly diminished”. Besides, the “dimensions of the solid cancer compared with those at the time of the X-ray photograph” value in data set [5] (one week after the X-ray irradiation, 0.01~0.04 mg i.v.) is given as “reduced significantly”.
